What was measured:
[1] = system: lung cancer cell line A549; experiment: Clonogenic assay, 6 days of continuous action, A549; format: cell-based
Method: (§1) Human cervical cancer cell line HeLa, human liver cancer cell line HepG2/7221/7402, human ovarian cancer cell line HOC8/A2780, human glioma cell line BT325, lung cancer cell line A549, brain metastatic lung cancer cell line BT72 and normal human hepatic cell line LO2 were all grown in DMEM liquid medium supplemented with 10% newborn calf serum. Human leukemia cell line Jurkat was grown in 1640 medium supplemented with 10% newborn calf serum. The above cell lines were cultured in a CO2 incubator at 5% CO2 at 37° C.
(§2) By way of example, human cervical cancer cell line HeLa, lung cancer cell line A549, and ovarian cancer cell lines A2780 and HOC8 were used to determine the killing of cancer cells by 2-bromo-isovanillin for 6 days. Specifically, four groups were formed according to the type of the cancer cells. The cancer cells were diluted as appropriate, and were respectively plated into Petri dishes with a diameter of […], the amount of the cells adjusted depending on the concentration of 2-bromo-isovanillin to be added. Once adherence was achieved, each cell type received dosages of 0, 5, 10, 15, 20, 25, 30 and 35 μmol/L in triplicates. After 6 days of continuous action, the medium was replaced by a drug-free DMEM liquid medium. […] Then the cell clones were counted. The experimental data were expressed as the mean of 2-4 experiments and were plotted as a growth curve of cancer cells.

[2] = system: leukemia cell line Jurkat; experiment: Apoptosis in Jurkat cells (Hoechst 33258/FDA staining, DNA gel electrophoresis, flow cytometry); format: cell-based, human
Method: as §1
3. Using the same procedure as described under items 1 and 2, the leukemia cells Jurkat were diluted, and plated into Petri dishes with a diameter of […], the amount of the cells adjusted depending on the concentration of 2-bromo-isovanillin to be added. Once adherence was achieved, the cells received dosages of 0, 10, 20, 30 and 40 μmol/L in triplicates. After 24 hrs of continuous action, the medium was replaced by a drug-free 1640 medium supplemented with 10% newborn calf serum. The cells were cultured for a total of 2 weeks. At the end of the culturing period, the cells were subjected to Hoechst 33258 and FDA double fluorescence staining and the results were plotted as an apoptosis curve, as shown in FIG. 4A.

[3] = system: human liver cancer cell line 7402; experiment: G2/M arrest by flow cytometry, 7402; format: cell-based; conditions: 7402, 40 μmol/L, 24 hrs
Method: (§3) By way of example, human liver cancer cell lines HepG2 and 7402, human ovarian cancer cell lines HOC8 and A2780, human glioma cell line BT325, lung cancer cell line A549, brain metastatic lung cancer cell line BT72 and prostate cancer cell line IB-4 were used to investigate the G2/M arresting of solid tumor cells of different tissue origins by 2-bromo-isovanillin as measured by the ratio of cells at G2/M phase. Specifically, the cancer cells were divided into two groups, and were treated with 0 or 40 μmol/L 2-bromo-isovanillin for 24 hours. Then the cells were harvested and analyzed for changes in cell cycle and cell apoptosis by flow cytometry.

[4] = system: prostate cancer cell line IB-4; experiment: G2/M arrest by flow cytometry, IB-4; format: cell-based; conditions: IB-4, 40 μmol/L, 24 hrs
Method: as §3

[5] = system: ovarian cancer cell line A2780; experiment: Clonogenic assay, 6 days of continuous action, A2780; format: cell-based, human
Method: as §1, §2

[6] = system: human cervical cancer cell line HeLa; experiment: Radiosensitizing activity with 2 Gy Co-60 γ radiation, HeLa, MTT assay; format: cell-based
Method: By way of example, human cervical cancer cell line HeLa was used to determine the radiosensitizing activity of 2-bromo-isovanillin.
Specifically, human cervical cancer cells HeLa were divided into six groups, diluted as appropriate, and plated into Petri dishes with a diameter of […]. The amount of cells plated in each Petri dish was 300/500 for 0 Gy group (without Co-60 γ radiation), or 400/800 for 2 Gy group. Once adherence was achieved, three groups were treated with 20 μmol/L 2-bromo-isovanillin (BVAN3208) for 0, 4 and 18 hrs, respectively and then irradiated with Co-60 γ ray at 2 Gy, followed by two weeks under conventional culturing conditions. As to the other three groups, one group was treated with 20 μmol/L 2-bromo-isovanillin (BVAN3208) for 72 hrs and then cultured for two weeks under conventional conditions, one group received irradiation with Co-60 γ ray at 2 Gy and then was cultured for two weeks under conventional conditions, and the remaining group as control received no treatment at all and was cultured for two weeks under conventional conditions. 48 hrs after irradiation with Co-60 γ ray, using MTT assay, the optical density (OD) values at 490 nm were measured and recorded, wherein the magnitude of OD value is indicative of cell number, i.e., cell proliferation. The results are shown in FIG. 5, wherein C represents the control group, R(2 Gy) represents the group treated with Co-60 γ ray alone, BVAN3208 represents the group treated with 20 μmol/L 2-bromo-isovanillin alone, and BVAN3208/0 h R, BVAN3208/4 h R and BVAN3208/18 h R respectively represent the groups treated with 20 μmol/L 2-bromo-isovanillin for 0, 4, 18 hrs before irradiation with Co-60 γ ray. The survival rates of the cancer cells treated with 2 Gy Co-60 γ ray radiation or 20 μmol/L 2-bromo-isovanillin for 72 hrs were 76% and 70%, respectively.

[7] = system: human liver cancer cell line HepG2; experiment: Clonogenic assay, HepG2 compared with normal hepatic cells LO2; format: cell-based; conditions: 5-80 μmol/L, 24 hrs
Method: By way of example, human liver cancer cell line HepG2 and normal human hepatic cell line LO2 were used to study the inhibitory effect of 2-bromo-isovanillin on the growth of liver cancer cells and normal cells by clonogenic assay. Specifically, five groups were formed according to the drug concentration, and the liver cancer cells HepG2 and normal hepatic cells LO2 were respectively treated with 5, 10, 20, 40 and 80 μmol/L 2-bromo-isovanillin for 24 hrs. Then cell survival was measured by clonogenic assay (FIG. 8). In addition, the cell cycle profile and apoptotic effect were compared using flow cytometry.

c-myc protein = c-myc protein expression by Western immunoblotting, HeLa; format: cell-based, human; conditions: 40 μmol/L, 0-24 hrs, decrease more remarkable with time
Method: The expression level of c-myc protein in human cervical cancer cell line HeLa treated with 2-bromo-isovanillin was determined by Western immunoblotting. In the Western blotting, the mouse anti-human c-myc protein monoclonal antibody SC-40 (purchased from Santa Cruz) was used as the primary antibody, and the goat anti-mouse antibody IgG-HRP (purchased from Zhongshan Reagent Co.) was used as the secondary antibody. Total proteins from human cervical cancer cells HeLa treated with 40 μmol/L 2-bromo-isovanillin for 0, 4, 8, 12, 24 hrs were extracted according to conventional methods, quantified and subjected to SDS-PAGE electrophoresis, followed by transferring to a membrane and immunoblotting, using β-actin as control.

tumor cells = experiment: Tumor inhibition upon administration for 6 consecutive days (summary statement)

## COc1ccc(C=O)c(Br)c1O [2-bromo-isovanillin, 2-bromo-3-hydroxy-4-methoxybenzaldehyde]
[1]; A549, 20 μmol/L
  survival rate: lower than 10%
[1]; A549, 30 μmol/L
  proliferation: completely inhibited
[2]; 0, 20, 30 μmol/L, 24 hrs
  apoptosis in Jurkat (flow cytometry): significantly induced apoptosis
[2]; Jurkat, 20, 30, 40 μmol/L, 2% agarose gel
  DNA gel electrophoresis finding: DNA fragmentation bands characteristic of apoptosis
[2]; Jurkat, 24 hrs, Hoechst 33258 and FDA double fluorescence staining
  dose inducing necrosis or M phase catastrophic death: ≥ 40 µmol/L
[3]
  cell cycle effect: arrested at G2/M phase
[4]
  cell cycle effect: arrested at G2/M phase
[5]; A2780, 20 μmol/L
  survival rate: lower than 10%
[5]; A2780, 30 μmol/L
  proliferation: completely inhibited
[6]; 20 μmol/L for 72 hrs alone, no radiation
  survival rate: 70%
[6]; 20 μmol/L, 2 Gy radiation 4 hrs after administration
  cell survival rate: about 51%
[6]; 20 μmol/L, 2 Gy radiation 18 hrs after administration
  cell survival rate: ~21%
[6]; 20 μmol/L, 2 Gy radiation immediately (0 h) after administration
  cell survival rate: about 51%
[6]; 20 μmol/L, pretreatment 18 hrs prior to 2 Gy radiation
  sensitization ratio: 3.32
[7]
  killing effect on HepG2 compared with normal hepatic cells: significantly higher
c-myc protein
  expression level of c-myc protein: decreased
Tumor cells
  tumor inhibition: 80-95%
